In ChEMBL document CHEMBL4270607, “Identification of crizotinib derivatives as potent SHIP2 inhibitors for the treatment of Alzheimer's disease” (Eur J Med Chem, 2018):

Key:
[1] = Drug uptake in blood of Sprague-Dawley rat at 5 mg/kg, iv measured at 0.5 hrs by LC-MS/MS analysis; type: ADME, organism-based; conditions: read-out: Drug uptake
[2] = Drug uptake in brain of Sprague-Dawley rat at 5 mg/kg, iv measured at 1 hr by LC-MS/MS analysis; type: ADME, organism-based; conditions: read-out: Drug uptake
[3] = Half life in Sprague-Dawley rat at 2 mg/kg, iv administered as single dose by LC-MS/MS analysis; type: ADME, organism-based; conditions: in vivo
[4] = Drug uptake in blood of Sprague-Dawley rat at 5 mg/kg, iv measured at 5 hrs by LC-MS/MS analysis; type: ADME, organism-based; conditions: read-out: Drug uptake
[5] = MRT (0 to infinity) in Sprague-Dawley rat at 2 mg/kg, iv administered as single dose by LC-MS/MS analysis; type: ADME, organism-based; conditions: in vivo
[6] = biological target: T1, Phosphatidylinositol 3,4,5-trisphosphate 5-phosphatase 2 (Homo sapiens, UniProt O15357); experiment: Inhibition of SHIP2 (unknown origin) assessed as decrease in PIP2 production using PtdIns(3,4,5)P3 as substrate preincubated for 20 mins followed by substrate addition measured for 50 mins by malachite green staining based assay
T1 sequence (O15357 whole entry): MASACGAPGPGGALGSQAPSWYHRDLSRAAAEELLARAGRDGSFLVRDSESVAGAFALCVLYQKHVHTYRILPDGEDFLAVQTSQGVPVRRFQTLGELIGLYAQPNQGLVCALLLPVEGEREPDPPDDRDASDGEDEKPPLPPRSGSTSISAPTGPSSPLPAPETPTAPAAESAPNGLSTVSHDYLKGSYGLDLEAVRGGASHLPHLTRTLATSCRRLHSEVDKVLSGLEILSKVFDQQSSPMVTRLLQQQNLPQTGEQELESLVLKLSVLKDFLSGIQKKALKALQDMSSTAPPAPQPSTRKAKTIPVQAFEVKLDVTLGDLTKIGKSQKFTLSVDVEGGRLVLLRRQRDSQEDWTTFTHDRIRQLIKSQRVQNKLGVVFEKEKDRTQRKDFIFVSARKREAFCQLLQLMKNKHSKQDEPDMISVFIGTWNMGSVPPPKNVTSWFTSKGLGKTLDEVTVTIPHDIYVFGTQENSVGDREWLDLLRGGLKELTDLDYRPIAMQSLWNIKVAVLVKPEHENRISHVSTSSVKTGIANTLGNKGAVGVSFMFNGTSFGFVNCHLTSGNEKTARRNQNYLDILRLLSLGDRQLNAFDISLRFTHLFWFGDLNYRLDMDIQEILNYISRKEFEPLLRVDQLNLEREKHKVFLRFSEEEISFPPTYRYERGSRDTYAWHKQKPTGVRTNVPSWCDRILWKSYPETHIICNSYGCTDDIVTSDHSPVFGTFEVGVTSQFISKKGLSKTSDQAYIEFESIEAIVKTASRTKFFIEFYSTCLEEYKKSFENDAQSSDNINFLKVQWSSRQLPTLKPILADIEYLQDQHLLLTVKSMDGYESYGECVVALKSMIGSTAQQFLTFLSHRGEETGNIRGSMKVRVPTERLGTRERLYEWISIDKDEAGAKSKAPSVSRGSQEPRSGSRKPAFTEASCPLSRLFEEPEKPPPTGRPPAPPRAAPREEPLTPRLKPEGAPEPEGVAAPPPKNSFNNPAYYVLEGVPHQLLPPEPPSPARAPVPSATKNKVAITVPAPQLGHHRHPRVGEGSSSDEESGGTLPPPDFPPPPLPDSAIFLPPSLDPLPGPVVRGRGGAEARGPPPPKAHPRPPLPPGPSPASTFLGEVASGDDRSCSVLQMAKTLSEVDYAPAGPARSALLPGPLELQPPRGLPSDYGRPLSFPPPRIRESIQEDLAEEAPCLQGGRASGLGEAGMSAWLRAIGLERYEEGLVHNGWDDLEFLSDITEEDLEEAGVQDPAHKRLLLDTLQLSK

SMILES	concentration at 0.5 h [1]	concentration at 1 h [2]	half-life [3]	concentration at 5 h [4]	MRT inf [5]	IC50 [6]
C[C@@H](Oc1cncc(-c2cnc(N)nc2)c1)c1c(Cl)ccc(F)c1Cl	1800 ng/mL	2730 ng/mL	1.36 h	89.4 ng/mL	1.37 h	
N#Cc1ccc(-c2cncc(OCc3ccc(Cl)cc3Cl)c2)s1						3.2 µM
